Measured values reported in ChEMBL document CHEMBL4017488, “Glucuronides as Potential Anionic Substrates of Human Cytochrome P450 2C8 (CYP2C8)” (J Med Chem, 2017).

Key:
[1] = In vivo drug metabolism in human assessed as CYP2C8-mediated glucuronide conjugate formation in urine by LC-MS/MS analysis; type: ADME, organism-based
Cytochrome P450 2C8 [2] = target: T1, Cytochrome P450 2C8 (Homo sapiens, UniProt P10632); assay: (§1) Inhibition of CYP2C8 in human liver microsomes preincubated for 30 mins followed by substrate addition measured after 2 mins; type: ADME
T1 sequence (P10632 whole entry): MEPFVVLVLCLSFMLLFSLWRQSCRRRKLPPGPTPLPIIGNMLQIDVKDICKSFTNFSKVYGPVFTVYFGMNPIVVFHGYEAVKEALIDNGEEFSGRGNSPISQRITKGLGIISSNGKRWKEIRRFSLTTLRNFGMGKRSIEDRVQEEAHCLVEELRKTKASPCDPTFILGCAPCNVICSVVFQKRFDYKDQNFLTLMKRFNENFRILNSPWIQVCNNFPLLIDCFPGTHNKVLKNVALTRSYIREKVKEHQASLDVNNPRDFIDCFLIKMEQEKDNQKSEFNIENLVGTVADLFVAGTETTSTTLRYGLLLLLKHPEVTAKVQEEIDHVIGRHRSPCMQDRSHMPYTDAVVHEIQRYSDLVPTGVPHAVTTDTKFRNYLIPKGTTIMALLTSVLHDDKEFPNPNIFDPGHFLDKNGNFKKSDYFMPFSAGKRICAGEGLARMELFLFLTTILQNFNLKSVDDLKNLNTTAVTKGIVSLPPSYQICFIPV

CYP2C8 [3] = target: T2, CYP2C8 (Homo sapiens, UniProt P10632); assay: as §1; type: ADME; details: human, liver microsomes
T2 sequence (P10632 whole entry): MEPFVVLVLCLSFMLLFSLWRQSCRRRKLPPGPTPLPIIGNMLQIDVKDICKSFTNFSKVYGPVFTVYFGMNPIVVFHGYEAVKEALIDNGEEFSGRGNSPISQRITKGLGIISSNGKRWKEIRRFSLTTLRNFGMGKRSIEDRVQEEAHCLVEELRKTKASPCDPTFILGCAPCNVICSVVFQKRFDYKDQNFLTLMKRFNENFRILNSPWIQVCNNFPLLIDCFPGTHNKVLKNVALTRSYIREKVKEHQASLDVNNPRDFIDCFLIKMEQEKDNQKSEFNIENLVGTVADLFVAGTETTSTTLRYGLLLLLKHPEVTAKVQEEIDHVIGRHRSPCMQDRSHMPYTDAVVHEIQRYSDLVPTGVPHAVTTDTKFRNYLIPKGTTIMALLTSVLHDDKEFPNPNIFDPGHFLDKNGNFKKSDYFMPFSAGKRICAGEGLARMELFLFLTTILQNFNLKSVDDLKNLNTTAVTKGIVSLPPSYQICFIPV

Cytochrome P450 2C8 [4] = target: T1, Cytochrome P450 2C8; assay: Inhibition of CYP2C8 in human liver microsomes using paclitaxel as substrate preincubated for 2 to 40 mins followed by NADPH-generating system addition measured after 2 mins; type: ADME
Cytochrome P450 2C8 [5] = target: T1, Cytochrome P450 2C8; assay: Inhibition of CYP2C8 in human liver microsomes using paclitaxel as substrate after 5 mins; type: ADME
[6] = In vivo drug metabolism in human assessed as UGT2B7-mediated 4'-hydroxydiclofinac acyl glucuronide level in urine; type: ADME, organism-based
Homo sapiens [7] = assay: In vivo drug metabolism in human assessed as CYP2C9-mediated 4'-hydroxydiclofinac metabolite formation; type: ADME, organism-based
[8] = In vivo drug metabolism in human assessed as CYP2C8-mediated gemfibrozil-1-O-beta-glucuronide-5'-benzyl alcohol metabolite levels in urine at 450 mg, po after 24 hrs by HPLC analysis; type: ADME, organism-based
[9] = In vivo drug metabolism in human assessed as UGT2B7-mediated gemfibrozil-1-O-beta-glucuronide metabolite levels in urine at 450 mg, po after 24 hrs by HPLC analysis; type: ADME, organism-based
Homo sapiens [10] = assay: In vivo inhibition of CYP2C8 in human assessed as reduction in gemfibrozil-1-O-glucuronide metabolite formation in plasma at 30 mg, po administered as single dose measured after 10 hrs by LC-MS/MS analysis
[11] = In vivo drug metabolism in human assessed as CYP2C8-mediated gemfibrozil-1-O-beta-glucuronide-2'-benzyl alcohol metabolite levels in urine at 450 mg, po after 24 hrs by HPLC analysis; type: ADME, organism-based
Blood [12] = assay: In vivo drug metabolism in human assessed as UGT-mediated deleobuvir acyl glucuronide metabolite formation in blood at 800 mg,po administered as single dose measured up to 12 hrs; type: ADME, organism-based
Blood [13] = assay: In vivo drug metabolism in human assessed as 3-(2-(1-(2-(5-bromopyrimidin-2-yl)-3-cyclopentyl-1-methyl-1H-indole-6-carboxamido)cyclobutyl)-1-methyl-1H-benzo[d]imidazol-6-yl)propanoic acid metabolite formation in blood at 800 mg,po administered as single dose measured up to 12 hrs by radiolabled assay; type: ADME, organism-based
Cytochrome P450 1A2 = target: T3, Cytochrome P450 1A2 (Homo sapiens, UniProt P05177); assay: (§2) Inactivation of CYP1A2 in human liver microsomes after 5 mins by LC-MS/MS analysis; type: ADME
T3 sequence (P05177 whole entry): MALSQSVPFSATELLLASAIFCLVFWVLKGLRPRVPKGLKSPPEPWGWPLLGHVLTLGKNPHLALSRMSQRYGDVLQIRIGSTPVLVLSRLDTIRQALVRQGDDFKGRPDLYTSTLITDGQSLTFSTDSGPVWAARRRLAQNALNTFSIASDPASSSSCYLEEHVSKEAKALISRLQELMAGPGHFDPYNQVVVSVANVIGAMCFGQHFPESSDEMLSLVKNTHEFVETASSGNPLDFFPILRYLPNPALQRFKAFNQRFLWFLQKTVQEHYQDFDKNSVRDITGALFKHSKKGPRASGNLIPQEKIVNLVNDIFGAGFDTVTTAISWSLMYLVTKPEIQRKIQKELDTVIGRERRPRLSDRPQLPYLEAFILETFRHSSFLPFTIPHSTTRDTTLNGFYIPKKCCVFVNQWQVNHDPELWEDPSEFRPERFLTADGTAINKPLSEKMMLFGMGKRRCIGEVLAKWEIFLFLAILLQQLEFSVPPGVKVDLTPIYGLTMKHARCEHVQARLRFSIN

CYP1A2 = target: T4, CYP1A2 (Homo sapiens, UniProt P05177); assay: as §2; type: ADME; details: human, liver microsomes
T4 sequence (P05177 whole entry): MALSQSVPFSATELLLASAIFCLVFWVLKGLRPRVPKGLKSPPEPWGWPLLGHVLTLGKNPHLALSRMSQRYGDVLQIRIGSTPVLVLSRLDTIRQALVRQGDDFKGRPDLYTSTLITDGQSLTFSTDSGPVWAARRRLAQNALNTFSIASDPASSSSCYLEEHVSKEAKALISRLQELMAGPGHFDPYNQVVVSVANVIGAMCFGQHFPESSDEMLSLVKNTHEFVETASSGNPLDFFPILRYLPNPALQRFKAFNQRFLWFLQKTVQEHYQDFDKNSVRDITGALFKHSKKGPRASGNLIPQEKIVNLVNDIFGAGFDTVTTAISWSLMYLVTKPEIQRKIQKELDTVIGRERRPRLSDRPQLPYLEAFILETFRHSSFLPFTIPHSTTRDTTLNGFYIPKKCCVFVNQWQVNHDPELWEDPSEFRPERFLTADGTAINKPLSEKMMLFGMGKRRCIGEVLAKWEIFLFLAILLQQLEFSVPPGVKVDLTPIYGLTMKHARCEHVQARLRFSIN

Cytochrome P450 2C8 [14] = target: T1, Cytochrome P450 2C8; assay: (§3) Time dependent inhibition of CYP2C8 in human liver microsomes after 5 mins by LC-MS/MS analysis; type: ADME
CYP2C8 [15] = target: T2, CYP2C8; assay: as §3; type: ADME; details: human, liver microsomes
Cytochrome P450 2C8 [16] = target: T1, Cytochrome P450 2C8; assay: Reversible inhibition of CYP2C8 in human liver microsomes after 5 mins by LC-MS/MS analysis; type: ADME
[17] = substrate: C[C@]12CC[C@@H]3c4ccc(O)cc4CC[C@H]3[C@@H]1CC[C@@H]2O[C@@H]1O[C@H](C(=O)O)[C@@H](O)[C@H](O)[C@H]1O; assay: Drug metabolism in human liver microsomes assessed as CYP2C8-mediated glucuronide conjugate formation per nmol of protein after 30 mins by HPLC-MS/MS analysis; type: ADME

CC(C)Cc1ccc(C(C)C(=O)O)cc1 (stereo not given) [IBUPROFEN]
Drug metabolism [1]: 10 to 15 %ID

O=C(O)[C@H]1O[C@@H](OC(=O)[C@H](c2ccccc2Cl)N2CCc3sccc3C2)[C@H](O)[C@@H](O)[C@@H]1O
Ki (Cytochrome P450 2C8 [2]): 9.9 µM | kinact at 2 min (CYP2C8 [3]): 0.000783 s⁻¹

Cc1ccc(C)c(OCCCC(C)(C)C(=O)O[C@@H]2O[C@H](C(=O)O)[C@@H](O)[C@H](O)[C@H]2O)c1
Ki (Cytochrome P450 2C8 [4]): 52 µM | IC50 (Cytochrome P450 2C8 [5]): 24 µM

O=C(O)Cc1ccccc1Nc1c(Cl)cccc1Cl [DICLOFENAC]
Drug metabolism [6]: 10 to 20 %ID | Drug metabolism (Homo sapiens [7]): 30 %ID

Cc1ccc(C)c(OCCCC(C)(C)C(=O)O)c1 [GEMFIBROZIL]
Drug metabolism [8]: 20 %ID | Drug metabolism [9]: 32 %ID | inhibition (INH) (Homo sapiens [10]): 50% | Drug metabolism [11]: 20 %ID

Cn1c(C2(NC(=O)c3ccc4c(C5CCCC5)c(-c5ncc(Br)cn5)n(C)c4c3)CCC2)nc2ccc(/C=C/C(=O)O)cc21 [DELEOBUVIR]
Drug metabolism (Blood [12]): 20 %ID | Drug metabolism (Blood [13]): 15 %ID

Cn1c(C2(NC(=O)c3ccc4c(C5CCCC5)c(-c5ncc(Br)cn5)n(C)c4c3)CCC2)nc2ccc(/C=C/C(=O)O[C@@H]3O[C@H](C(=O)O)[C@@H](O)[C@H](O)[C@H]3O)cc21
Ki (Cytochrome P450 1A2): 54.6 µM | kinact at 5 min (CYP1A2): 0.000733 s⁻¹ | Ki (Cytochrome P450 2C8 [14]): 0.0521 µM | kinact at 5 min (CYP2C8 [15]): 0.000868 s⁻¹ | Ki (Cytochrome P450 2C8 [16]): 0.022 µM

B1: Cytochrome P450 2C8 (Homo sapiens) (protein)
chain: MEPFVVLVLCLSFMLLFSLWRQSCRRRKLPPGPTPLPIIGNMLQIDVKDICKSFTNFSKVYGPVFTVYFGMNPIVVFHGYEAVKEALIDNGEEFSGRGNSPISQRITKGLGIISSNGKRWKEIRRFSLTTLRNFGMGKRSIEDRVQEEAHCLVEELRKTKASPCDPTFILGCAPCNVICSVVFQKRFDYKDQNFLTLMKRFNENFRILNSPWIQVCNNFPLLIDCFPGTHNKVLKNVALTRSYIREKVKEHQASLDVNNPRDFIDCFLIKMEQEKDNQKSEFNIENLVGTVADLFVAGTETTSTTLRYGLLLLLKHPEVTAKVQEEIDHVIGRHRSPCMQDRSHMPYTDAVVHEIQRYSDLVPTGVPHAVTTDTKFRNYLIPKGTTIMALLTSVLHDDKEFPNPNIFDPGHFLDKNGNFKKSDYFMPFSAGKRICAGEGLARMELFLFLTTILQNFNLKSVDDLKNLNTTAVTKGIVSLPPSYQICFIPV
Km [17]: 88 µM | Vmax [17]: 0.00186 µmol/min
